Where “and” joins values, the source holds several entries; their conditions need not be identical. Equal values may be shown once. ± gives the expanded uncertainty stated by the source.
Settings: for mass density: 407.69 K, Fluid (supercritical or subcritical phases), Bellows volumetry

CC(C)C [2-methylpropane]
Settings | mass density
3627.5 kPa | 203.1 ± 1.8 kg/m3
3629.3 kPa | 205.78 ± 2 kg/m3
3631.2 kPa | 208.58 ± 2.2 kg/m3
3632.8 kPa | 211.59 ± 3.3 kg/m3
3634 kPa | 214.88 ± 4.6 kg/m3
3634.8 kPa | 218.47 ± 4.5 kg/m3
3635.3 kPa | 222.42 ± 5.1 kg/m3
3635.4 kPa | 223.5 ± 5.1 kg/m3
3635.7 kPa | 225.57 ± 5.1 kg/m3 and 226.64 ± 5.1 kg/m3
3636.3 kPa | 228.77 ± 5 kg/m3
3637 kPa | 230.86 ± 5.4 kg/m3
3638.4 kPa | 235.26 ± 4.3 kg/m3
3639.6 kPa | 239.96 ± 4.2 kg/m3
3641.1 kPa | 244.93 ± 4.3 kg/m3

Settings | Critical temperature [K]
Liquid, Visual observation in a stirred cell | 407.69 ± 0.05

Reference: the NIST ThermoML archive (doi:10.1007/s10765-017-2256-0)
